“And” between values parts separate entries of the source, which are not always exact repeats. Identical values can stand only once. Inconclusive results and toxic doses are left out. No stated cut-off is given here; in the data, active means T/C of 150% or more; inactive means T/C below 125%.
System: L1210 leukemia ip in BDF1 mice, survival T/C
Assay: NCI In Vivo Anticancer Drug Screen. Data for tumor model L1210 Leukemia (intraperitoneal) in B6D2F1 (BDF1) mice
Settings: endpoint: mean survival time, higher = longer survival
Outline: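 Ratio derived from survival: compound-dosed mice over vehicle-dosed mice, all bearing a transplantable tumor.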

[1] = dose: 50.0 mg/kg/injection, schedule: Q01DX009 (ip), vehicle: Klucel (hydroxypropylcellulose) (HPC)
[2] = dose: 100.0 mg/kg/injection, schedule: Q01DX009 (ip), vehicle: saline
[3] = dose: 100.0 mg/kg/injection, schedule: Q01DX009 (ip), vehicle: Klucel (hydroxypropylcellulose) (HPC)
[4] = dose: 100.0 mg/kg/injection, schedule: Q04DX003 (ip), vehicle: Klucel (hydroxypropylcellulose) (HPC)
[5] = dose: 200.0 mg/kg/injection, schedule: Q04DX003 (ip), vehicle: Klucel (hydroxypropylcellulose) (HPC)
[6] = dose: 400.0 mg/kg/injection, schedule: Q04DX003 (ip), vehicle: Klucel (hydroxypropylcellulose) (HPC)
[7] = dose: 200.0 mg/kg/injection, schedule: Q01DX009 (ip), vehicle: Klucel (hydroxypropylcellulose) (HPC)
[8] = dose: 50.0 mg/kg/injection, schedule: Q01DX001 (ip), vehicle: carboxymethylcellulose (CMC)
[9] = dose: 100.0 mg/kg/injection, schedule: Q01DX001 (ip), vehicle: carboxymethylcellulose (CMC)
[10] = dose: 400.0 mg/kg/injection, schedule: Q01DX001 (ip), vehicle: carboxymethylcellulose (CMC)
[11] = dose: 100.0 mg/kg/injection, schedule: Q01DX001 (ip), vehicle: saline
[12] = dose: 200.0 mg/kg/injection, schedule: Q01DX001 (ip), vehicle: saline
[13] = dose: 400.0 mg/kg/injection, schedule: Q01DX001 (ip), vehicle: saline

Measured: T/C

FC(F)=C(F)I
inactive: dose: 50.0 mg/kg/injection, schedule: Q01DX005 (ip), vehicle: other 102 % of control | dose: 100.0 mg/kg/injection, schedule: Q01DX005 (ip), vehicle: other 87 % of control | dose: 100.0 mg/kg/injection, schedule: Q04DX002 (ip), vehicle: other 98 % of control | dose: 200.0 mg/kg/injection, schedule: Q01DX005 (ip), vehicle: other 94 % of control | dose: 200.0 mg/kg/injection, schedule: Q04DX002 (ip), vehicle: other 104 % of control

NC(N)=NC(N)=Nc1ccc(Cl)c(Cl)c1
inactive: dose: 25.0 mg/kg/injection, schedule: Q01DX009 (ip), vehicle: Klucel (hydroxypropylcellulose) (HPC) 100 % of control | dose: 25.0 mg/kg/injection, schedule: Q01DX009 (ip), vehicle: saline 104 % of control | [1] 104 % of control | dose: 50.0 mg/kg/injection, schedule: Q01DX009 (ip), vehicle: saline 98 % of control | dose: 75.0 mg/kg/injection, schedule: Q01DX009 (ip), vehicle: Klucel (hydroxypropylcellulose) (HPC) 102 % of control | [2] 91 % of control | dose: 100.0 mg/kg/injection, schedule: Q04DX003 (ip), vehicle: saline with Tween-80 100 % of control

CCCCCCCCCCCCCCCCOC(=O)C[n+]1ccc(C(N)=O)cc1
inactive: dose: 100.0 mg/kg/injection, schedule: Q04DX003 (ip), vehicle: acetone 97 % of control | dose: 200.0 mg/kg/injection, schedule: Q04DX003 (ip), vehicle: acetone 90 % of control

O=C(COc1ccc(Cl)cc1)Nc1ccc(Cl)cc1
inactive: [3] 91 % of control | [4] 92 % of control | [5] 93 % of control | dose: 400.0 mg/kg/injection, schedule: Q01DX009 (ip), vehicle: Klucel (hydroxypropylcellulose) (HPC) 88 % of control | [6] 93 % of control

CN1C(=S)SC(c2ccccc2)N(C)C1c1ccccc1 (centres undefined)
inactive: [1] 101 % of control | [3] 98 % of control | [4] 89 % of control | [7] 106 % of control | [5] 89 % of control | [6] 86 % of control

Cc1cccc([P+](Cc2ccccc2)(c2cccc(C)c2)c2cccc(C)c2)c1
inactive: dose: 15.0 mg/kg/injection, schedule: Q01DX001 (ip), vehicle: carboxymethylcellulose (CMC) 90 % of control

CCOc1ccccc1NC(=O)C1CCCCC1C(=O)O (centres undefined)
inactive: dose: 100.0 mg/kg/injection, schedule: Q04DX002 (ip), vehicle: saline 96 % of control | dose: 200.0 mg/kg/injection, schedule: Q04DX002 (ip), vehicle: saline 112 % of control

COC1=C(OC)C(=O)C(SCCCc2ccccc2)=CC1=O
inactive: dose: 1.56 mg/kg/injection, schedule: Q01DX009 (im), vehicle: olive oil, sesame oil, peanut oil 101 % of control | dose: 3.13 mg/kg/injection, schedule: Q01DX009 (im), vehicle: olive oil, sesame oil, peanut oil 96 % of control | dose: 6.25 mg/kg/injection, schedule: Q01DX009 (im), vehicle: olive oil, sesame oil, peanut oil 98 % of control | dose: 12.5 mg/kg/injection, schedule: Q01DX009 (im), vehicle: olive oil, sesame oil, peanut oil 101 % of control | dose: 25.0 mg/kg/injection, schedule: Q01DX009 (im), vehicle: olive oil, sesame oil, peanut oil 98 % of control

CCOC(=O)n1[nH][nH]c2c(c(=O)n(C)c(=O)n2C)n1C(=O)OCC
inactive: dose: 75.0 mg/kg/injection, schedule: Q04DX003 (ip), vehicle: saline 95 % of control | dose: 150.0 mg/kg/injection, schedule: Q04DX003 (ip), vehicle: saline 95 % of control | dose: 300.0 mg/kg/injection, schedule: Q04DX003 (ip), vehicle: saline 94 % of control

Nc1nc(-c2ccccc2)c(CCCOc2ccc([N+](=O)[O-])cc2)c(=O)[nH]1
inactive: [8] 88 % of control | [9] 91 % of control | [10] 88 % of control

CC(C)N(C(=O)Nc1ccc(Cl)cc1)C1CCCCC1
inactive: dose: 87.5 mg/kg/injection, schedule: Q04DX003 (ip), vehicle: carboxymethylcellulose (CMC) 101 % of control | dose: 175.0 mg/kg/injection, schedule: Q04DX003 (ip), vehicle: carboxymethylcellulose (CMC) 96 % of control | dose: 350.0 mg/kg/injection, schedule: Q04DX003 (ip), vehicle: carboxymethylcellulose (CMC) 95 % of control

COc1cc2c(cc1O)C(Cc1ccc(OC)c(OC)c1)N(C)CC2 (centres undefined)
inactive: dose: 75.0 mg/kg/injection, schedule: Q01DX001 (ip), vehicle: other 93 % of control | dose: 150.0 mg/kg/injection, schedule: Q01DX001 (ip), vehicle: other 101 % of control

CCCCCCCCCC(O)CCCC(O)C(O)CCCCCCC(=O)O (centres undefined)
inactive: dose: 100.0 mg/kg/injection, schedule: Q04DX002 (ip), vehicle: Klucel (hydroxypropylcellulose) (HPC) 91 % of control | dose: 200.0 mg/kg/injection, schedule: Q04DX002 (ip), vehicle: Klucel (hydroxypropylcellulose) (HPC) 91 % of control | dose: 400.0 mg/kg/injection, schedule: Q04DX002 (ip), vehicle: Klucel (hydroxypropylcellulose) (HPC) 91 % of control

C/C(CCc1ccccc1)=N/N(C)C
inactive: [11] 97 % of control | [2] 94 % of control | [12] 95 % of control | dose: 200.0 mg/kg/injection, schedule: Q01DX009 (ip), vehicle: saline 91 % of control | [13] 96 % of control

CNc1c([N+](=O)[O-])ncn1C
inactive: dose: 12.5 mg/kg/injection, schedule: Q04DX003 (ip), vehicle: saline 98 % of control | dose: 25.0 mg/kg/injection, schedule: Q04DX003 (ip), vehicle: saline 94 % of control | dose: 50.0 mg/kg/injection, schedule: Q04DX003 (ip), vehicle: saline 91 % of control | dose: 100.0 mg/kg/injection, schedule: Q04DX003 (ip), vehicle: saline 97 % of control

C[N+](C)(C)CCC[N+](C)(C)CCN1C(=O)c2cccc3cccc(c23)C1=O
inactive: dose: 6.25 mg/kg/injection, schedule: Q01DX001 (ip), vehicle: saline 103 % of control | dose: 12.5 mg/kg/injection, schedule: Q01DX001 (ip), vehicle: saline 103 % of control | dose: 25.0 mg/kg/injection, schedule: Q01DX001 (ip), vehicle: saline 103 % of control | dose: 50.0 mg/kg/injection, schedule: Q01DX001 (ip), vehicle: saline 101 % of control

CCOC(=O)C(C)CC(C)(C(=O)OCC)C(=O)OCC (centres undefined)
inactive: dose: 25.0 mg/kg/injection, schedule: Q04DX003 (ip), vehicle: Klucel (hydroxypropylcellulose) (HPC) 98 % of control | [1] 93 % of control | dose: 50.0 mg/kg/injection, schedule: Q04DX003 (ip), vehicle: Klucel (hydroxypropylcellulose) (HPC) 103 % of control | [3] 104 % of control | [4] 98 % of control and 103 % of control | [7] 100 % of control

CNc1cccc(C(=O)O)c1
inactive: dose: 100.0 mg/kg/injection, schedule: Q01DX001 (ip), vehicle: Klucel (hydroxypropylcellulose) (HPC) 91 % of control | [4] 113 % of control | dose: 200.0 mg/kg/injection, schedule: Q01DX001 (ip), vehicle: Klucel (hydroxypropylcellulose) (HPC) 102 % of control | [5] 107 % of control | dose: 400.0 mg/kg/injection, schedule: Q01DX001 (ip), vehicle: Klucel (hydroxypropylcellulose) (HPC) 98 % of control | [6] 97 % of control

Cc1c2c(cc3c1OCN(Cc1ccccc1)C3)CN(Cc1ccccc1)CO2
inactive: [8] 105 % of control | [9] 94 % of control | dose: 200.0 mg/kg/injection, schedule: Q01DX001 (ip), vehicle: carboxymethylcellulose (CMC) 89 % of control | [10] 91 % of control

CCCC[Si](C)(C)CCCC
inactive: [11] 103 % of control | [12] 105 % of control | [13] 100 % of control
